Laboratory results published in patent US6916802B2, “Amino ceramide-like compounds and therapeutic methods of use” (Genzyme Corporation, priority 2002, dated 2005).

Assays:
[1] = test system: GlcCer synthase of rabbit liver microsomes; assay: GlcCer synthase of rabbit liver microsomes; assay type: biochemical
[2] = test system: GlcCer synthase of MDCK cell homogenates; assay: Inhibition of ceramide glucosyltransferase (GlcCer synthase) of MDCK cell homogenates; assay type: biochemical, canine
Procedure, shortened: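 MDCK cell sonicate (~0.2 mg protein) incubated with octanoyl sphingosine (85 μg, in dioleoylphosphatidylcholine/sulfatide liposomes) and UDP-[^3H]glucose in a thermostatted ultrasonic bath. Aromatic inhibitors were dried into the tube; aliphatic inhibitors were incorporated in the substrate liposomes.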

inhibitory activity against GlcCer synthase of rabbit liver microsomes [1]: no inhibitory activity
Compound: CCCCCCCCCCCCCCCC(=O)NC(CN1CCN(c2ccccc2)CC1)C(O)c1ccccc1 (mixture of isomers) [BML-112]
activity against GlcCer synthase, in words [2]: little or no activity
